# Laboratory results: patent US20050176822A1, “Phenylacetonitrile derivatives and hair tonics and external preparations for skin containing the derivatives” (priority 2002, published 2005)
# Tests used:
# [1] = tested on: artificial bulbus pili site (human dermal papilla cells + outer root sheath cells); assay: Growth-stimulative activity test on artificial human bulbus pili cell (Alamar Blue relative respiration level); assay type: cell-based; conditions: for Judgment (cell growth-stimulative effect by relative respiration level): final concentration 10^−12 M or 10^−14 M (not said which), 2 days incubation, negative control 0.1% ethanol = 100%; for cell growth-stimulative effect on artificial bulbus pili site, in words: final concentration 10^−12 M or 10^−14 M, summary of Table 2
# Procedure: Growth-Stimulative Activity Test on Artificial Human Bulbus Pili Cell
# (1) Preparation of First Stage Incubated Outer Root Sheath Cell
# A bulbus pili site of a hair follicle isolated from a human scalp obtained by a plastic surgery was excised and then enzymatically treated in Keratinocyte-SFM medium (GibcoBRL:11965-011) supplemented with 1000 unit/ml dispase+0.2% collagenase at 37° C. for 30 minutes. After unnecessary hair follicle mesenchymal tissue such as connective tissue root sheath was removed therefrom using the tip of a syringe needle (27G), the residue was placed in the incubating space of an incubator coated with collagen and explant culture was performed in Keratinocyte-SFM medium supplemented with an antibacterial agent. After incubation for about 1 week, the medium was exchanged upon ensuring the growth of the cells. Cells grown to be subconfluent were treated with PBS(−)+0.05% trypsin at 37° C. for 3 minutes and the reaction was stopped with an equivalent amount or more of PBS(−)+0.1% trypsin inhibitor (Sigma). The cells were collected by centrifugal separation (1200 rpm×5 min) and suspended again in PBS(−). The cells were collected by centrifugal separation (1200 rpm×5 min), thereby washing the cells. Washed cells were stored while being frozen in a liquid nitrogen using Cellbanker II (DIA-IATRON: ZCB-201(100)), thereby obtaining the first stage incubated outer root sheath cells.
# (2) Preparation of First Stage Incubated Dermal Papilla Cell
# From a bulbus pili site obtained by excising a hair follicle isolated from a human scalp obtained by a plastic surgery, using the tip of a syringe needle (27G), a dermal papilla site was isolated under a stereoscopic microscope and placed in the incubating space of an incubator coated with collagen. Then, explant culture was performed in 10% FBS-added DMEM medium (GibcoBRL: 11965-092) supplemented with an antibacterial agent. After incubation for about 2 week, the medium was exchanged upon ensuring the growth of the cells. Cells grown to be subconfluent were treated with PBS(−)+0.05% trypsin at 37° C. for 3 minutes and the reaction was stopped with an equivalent amount or more of PBS(−)+0.1% trypsin inhibitor (Sigma). The cells were collected by centrifugal separation (1200 rpm×5 min) and suspended again in PBS(−). The cells were collected by centrifugal separation (1200 rpm×5 min), thereby washing the cells. Washed cells were stored while being frozen in a liquid nitrogen using Cellbanker II (DIA-IATRON: ZCB-201(100)), thereby obtaining the first stage incubated dermal papilla cells.
# (3) Manufacture of the Artificial Bulbus Pili Site
# (§1) The first stage incubated dermal papilla cell obtained above was subcultured three times (37° C., 5% CO2) in a 10% FBS-supplemented DMEM medium (GibcoBRL: 11965-092) in a 75 cm^2 incubation flask coated with Type I collagen, and then stored while being frozen in a liquid nitrogen using Cellbanker II (DIA-IATRON: ZCB-201(100)) (DPc).
# as §1, with “Also, the” for “The”, “outer root sheath” for “dermal papilla”, “Keratinocyte-SFM” for “10% FBS-supplemented DMEM”, “11965-011)” for “11965-092)”, “(ORSc).” for “(DPc).”
# The DPc and ORSc stored as frozen were thawed, washed with an ice-cooled Keratinocyte-SFM medium, dispersed in Keratinocyte-SFM(+) medium (which is Keratinocyte-SFM medium supplemented with 5 ng/mL epidermal growth factor and 5 μl/mL bovine pituitary glanusi extract), and subjected to an accurate cell density measurement using a hemocytometer. Then, each cell density was adjusted at 5×10^4 cells/ml, and the cell dispersions in equal volumes were combined under cooling with ice. 80 μl aliquots of the combined cell suspending Keratinocyte-SFM(+) medium were inoculated into individual wells of Sumilon celltight spheroid 96U plate (Sumitomo Bakelit co.,), and incubated for 2 days (37° C., 5% CO2). […]
# [2] = tested on: immortalized human outer root sheath cell; assay: Growth-stimulative activity test on immortalized human outer root sheath cell ([3H]-thymidine uptake); assay type: cell-based; conditions: negative control (KBM+dH2O) = 100%, 2 days incubation
# Procedure: Growth-Stimulative Activity Test on Immortalized Human Outer Root Sheath Cell (I) Immortalized Human Outer Root Sheath Cell Keratinocyte-SFM medium (Gibco BRL), to which a supplement attached with the medium was added, was used for culture on a dish which surface was coated with collagen. The cell was cultured until it became semiconfluent and then peeled off with 0.05% trypsin/PBS(−) and subcultured. 30-40th stage culture cells were used for study on growth. (2) Sample Preparation Each tested compound described below is dissolved with distilled water at the concentration of 10 mM and sterilized through Millipore filter. This aqueous solution was diluted with KBM at a predetermined concentration and added to the cell as a sample. The immortalized human outer root sheath cell was inoculated into a microplate (Iwaki, 24 wells) (20000 cells/well) with a growth medium KGM (Sanko Junyaku Co., Ltd., CC-3111) and incubated at 37° C. for 1 day. After each well was washed once with basal medium KBM (Sanko Junyaku Co., Ltd., CC-3101), the medium was exchanged with KBM containing each sample, and then incubated further for 2 days. [^3H]-Thymidine (Amersham Pharmacia Biotech K.K., TRK758, the final concentration: 20 μCi/ml) was added thereto and incubated at 37° C. for 3 hours. The cell was peeled off with 0.25% trypsin/PBS(−) and collected on a glass filter (Watmann, GLC). After [^3H]-thymidine that is not taken into the cell was removed by washing with distilled water, the filter was air-dried and then the radioactivity was measured by a liquid scintillation counter. […], using the uptake quantity of radioactivity in the sample-added group when that in the negative control medium (KBM+dH2O) was regarded as 100%, the immortalized human outer root sheath cell growth activity was evaluated.
compound,measurement,setting,value
CCN(C)CCCC(C#N)(c1ccc(OC)c(OC)c1)C(C)C (stereo not drawn) [Example 4],Judgment (cell growth-stimulative effect by relative respiration level),[1],+++ (Very strong effect is recognized (115% or more))
same,"cell growth-stimulative effect on artificial bulbus pili site, in words",[1],very strong effects
CCCN(C)CCCC(C#N)(c1ccc(OC)c(OC)c1)C(C)C (stereo not drawn) [Example 5],Judgment (cell growth-stimulative effect by relative respiration level),[1],"+ (Effect is recognized (105% or more, and less then 110%))"
COc1ccc(C(C#N)(CCCN(C)C(C)C)C(C)C)cc1OC (stereo not drawn) [Example 6],Judgment (cell growth-stimulative effect by relative respiration level),[1],"+ (Effect is recognized (105% or more, and less then 110%))"
CCCCN(C)CCCC(C#N)(c1ccc(OC)c(OC)c1)C(C)C (stereo not drawn) [Example 7],Judgment (cell growth-stimulative effect by relative respiration level),[1],"+ (Effect is recognized (105% or more, and less then 110%))"
COc1ccc(C(C#N)(CCCN(C)CC(C)C)C(C)C)cc1OC (stereo not drawn) [Example 8],Judgment (cell growth-stimulative effect by relative respiration level),[1],"++ (Strong effect is recognized (110% or more, and less than 115%))"
same,"cell growth-stimulative effect on artificial bulbus pili site, in words",[1],strong effects
CCCN(CCC)CCCC(C#N)(c1ccc(OC)c(OC)c1)C(C)C (stereo not drawn) [Example 12],Judgment (cell growth-stimulative effect by relative respiration level),[1],"+ (Effect is recognized (105% or more, and less then 110%))"
COc1ccc(C(C#N)(CCCN(CC(C)C)CC(C)C)C(C)C)cc1OC (stereo not drawn) [Example 15],Judgment (cell growth-stimulative effect by relative respiration level),[1],"+ (Effect is recognized (105% or more, and less then 110%))"
"COc1ccc(C(C#N)(CCCN(C)CCC(C)C)C(C)C)cc1OC.Cl (stereo not drawn) [Example 21, 2-(3′,4′-dimethoxyphenyl)-2-isopropyl-5-[N-methyl-N-(3-methylbutyl)amino]-pentanenitrile hydrochloride]",[^3H]-thymidine uptake quantity,[2]; concentration 10^−9 M,151%
same,[^3H]-thymidine uptake quantity,[2]; concentration 10^−10 M,143%
same,[^3H]-thymidine uptake quantity,[2]; concentration 10^−11 M,160%
same,[^3H]-thymidine uptake quantity,[2]; concentration 10^−12 M,114%
same,[^3H]-thymidine uptake quantity,[2]; concentration 10^−13 M,118%
"CNCCC[C@](C#N)(c1ccc(OC)c(OC)c1)C(C)C.Cl [Example 22, (R)-2-(3′,4′-dimethoxyphenyl)-2-isopropyl-5-methylaminopentanenitrile hydrochloride]",[^3H]-thymidine uptake quantity,[2]; concentration 10^−9 M,105%
same,[^3H]-thymidine uptake quantity,[2]; concentration 10^−10 M,98%
same,[^3H]-thymidine uptake quantity,[2]; concentration 10^−11 M,111%
same,[^3H]-thymidine uptake quantity,[2]; concentration 10^−12 M,135%
same,[^3H]-thymidine uptake quantity,[2]; concentration 10^−13 M,153%
same,[^3H]-thymidine uptake quantity,[2]; concentration 10^−14 M,160%
"COc1ccc([C@@](C#N)(CCCN(C)CCC(C)C)C(C)C)cc1OC.Cl [Example 23, (R)-2-(3′,4′-dimethoxyphenyl)-2-isopropyl-5-[N-methyl-N-(3-methylbutyl)amino]-pentanenitrile hydrochloride]",[^3H]-thymidine uptake quantity,[2]; concentration 10^−9 M,115%
same,[^3H]-thymidine uptake quantity,[2]; concentration 10^−10 M,106%
same,[^3H]-thymidine uptake quantity,[2]; concentration 10^−11 M,107%
same,[^3H]-thymidine uptake quantity,[2]; concentration 10^−12 M,117%
same,[^3H]-thymidine uptake quantity,[2]; concentration 10^−13 M,114%
same,[^3H]-thymidine uptake quantity,[2]; concentration 10^−14 M,125%
"COc1ccc(C(C#N)(CCCN2CCOCC2)C(C)C)cc1OC (stereo not drawn) [Example 24, 2-(3′,4′-dimethoxyphenyl)-2-isopropyl-5-morpholine-4″-yl-pentanenitrile]",Judgment (cell growth-stimulative effect by relative respiration level),[1],"± (Weak effect is recognized (102% or more, and less then 105%))"
"COc1ccc(C(C#N)(CCCn2cccc2)C(C)C)cc1OC (stereo not drawn) [Example 25, 2-(3′,4′-dimethoxyphenyl)-2-isopropyl-5-pyrrole-1″-yl-pentanenitrile]",Judgment (cell growth-stimulative effect by relative respiration level),[1],"++ (Strong effect is recognized (110% or more, and less than 115%))"
same,"cell growth-stimulative effect on artificial bulbus pili site, in words",[1],strong effects
"COc1ccc(C(C#N)(CCCn2ccnc2)C(C)C)cc1OC (stereo not drawn) [Example 26, 2-(3′,4′-dimethoxyphenyl)-5-imidazole-1″-yl-2-isopropylpentanenitrile]",Judgment (cell growth-stimulative effect by relative respiration level),[1],"+ (Effect is recognized (105% or more, and less then 110%))"
"COc1ccc(C(C#N)(CCCn2cccn2)C(C)C)cc1OC (stereo not drawn) [Example 27, 2-(3′,4′-dimethoxyphenyl)-2-isopropyl-5-pyrazole-1″-yl-pentanenitrile]",Judgment (cell growth-stimulative effect by relative respiration level),[1],"+ (Effect is recognized (105% or more, and less then 110%))"
"CCCCCN(C)CCCC(C#N)(c1ccc(OC)c(OC)c1)C(C)C (stereo not drawn) [Example 28, 2-(3′,4′-dimethoxyphenyl)-2-isopropyl-5-[N-methyl-N-(n-pentyl)amino]pentane nitrile]",Judgment (cell growth-stimulative effect by relative respiration level),[1],"++ (Strong effect is recognized (110% or more, and less than 115%))"
same,"cell growth-stimulative effect on artificial bulbus pili site, in words",[1],strong effects
